Reference: patent US20250302767A1, “TREATMENT OF CANCER AND AUTOIMMUNE DISORDERS USING NANO POLYMERS OF HISTONE DEACETYLASE INHIBITORS” (University of Virginia Patent Foundation, priority 2021, published 2025)
Where two headings read alike, the source gives them in different places.

Key:
[1] = tested on: cancer cell lines (SUP-T1, FEPD, H9, HH, SUP-M2, NKL, TL-1, FM3-29); test: Cell viability assay, summary across all cancer cell lines tested; assay type: cell-based, human
Procedure: Cell Viability Assay. For cell viability, cell lines were plated at the appropriate cell densities (SUP-T1, HH, NKL and TL-1 at 100,000 cells/ml/well and H9, FEPD SUP-M2 and FM3-29 at 50,000 cells/ml/well) in a 48-well plate. […] Luminescence was normalized to untreated control, which was defined as 100% viability.

[2] = tested on: PBMCs from healthy donors; test: Cell viability of normal cells (CELL TITER GLO); assay type: cell-based, human; settings: for IC50: Homo sapiens, PBMC
[3] = tested on: acetylation of histone proteins H3 and H4 in HH cells; test: Acetylation of histone H3 and H4 (flow cytometry, Western blot); assay type: cell-based, human; settings: increasing doses, 30 hours
Procedure: Flow Cytometry. Cells were harvested after 30 hours of treatment, washed twice with PBS, fixed with 4% paraformaldehyde solution and permeabilized with 70% methanol before incubating with the relevant antibodies: HDAC1 Polyclonal Antibody (Proteintech), Rabbit anti-Acetyl Histone H3 K9/K14, and Rabbit Anti-Acetyl Histone H4 (Millipore). After 30 minutes incubation at room temperature cells are washed twice with PBS and FITC conjugated secondary Goat anti-rabbit antibodies (Thermofisher) were added. Cells were incubated on ice for 30 minutes and then washed in PBS. After the second wash, cells were resuspended in PBS with 4% FBS and ready for signal acquisition on a flow cytometer. Apoptosis in cell lines was assessed by the presence of cleaved Poly (ADP-ribose) polymerase-1 (PARP) using a flourochrome conjugated anti-cleaved PARP antibody (BD Biosciences). After staining the cells were acquired using an Attune Flow Cytometer and the data analyzed using FloJo analysis software. The Mean Fluorescence intensity (MFI) was indicative of the level of expression of each marker.
Western Blots. […] Antibodies were detected with the corresponding horseradish peroxidase-linked secondary antibodies. […] Signal detection and imaging was captured and analyzed using a CHEMIDOC™ System (Bio-Rad) with signal quantification. […]

[4] = Pharmacokinetic study, romidepsin in plasma; settings: mouse, in vivo, 2.5 mg/kg
Procedure: Each treatment cohort was further divided into two sub-cohorts depending upon the route of administration (IP or IV). […] Mice were sacrificed (n=3 per time point) at 1, 3, 6, 18, 24, 48, and 72 hours after the treatment. Blood (˜1 mL) was collected via terminal cardiac puncture under CO2 anesthesia and collected in EDTA-coated K3EDTA tubes followed by centrifugation (2000×g for 15 min) to isolate plasma. Plasma was placed in cryopreservation vials and preserved by snap freezing using liquid nitrogen. Blood from three untreated mice was collected at the beginning of the treatment (T=0) and used as a control.
For efficacy study: 5- to 7-week-old female NOD.Cg-Prkdcscid Il2rgtm1Wjl/SzJ mice (The Jackson Laboratory). were injected with 3 million a fluorescent protein, Chili (dTomato-absorption max and emission max at 554 nm and 581 nm respectively)—and a bioluminescence generating protein, firefly luciferase (Luc) expressing H9 cells subcutaneously in the flank. In vivo BLI analysis was conducted on a cryogenically cooled Lago X (Spectral Instruments Imaging system). Mice were imaged twice a week starting 4 days after inoculation of cells. […] Baseline imaging data were recorded for all mice on day 1 (start of drug administration) and on each day of drug administration before the treatment. The numbers of animals, study design, and treatment of animals were reviewed, and approved by the Institutional Animal Care and Use Committee (IACUC) of the University of Virginia, Charlottesville, Virginia, United States of America.

BALB/c mice = test: Repeated dose toxicity study; assay type: in vivo
Source text: FIGS. 14A and 14B. […] Depicted are the percentage of body weight changes as a percentage of starting weights with SEM (FIG. 14A; n=5 mice/group) and clinical score with SEM (FIG. 14B; n=5 mice/group).
In vivo studies. For single dose toxicity study, five to seven-week old female BALB/c mice were chosen for the MTD study. Animals were randomly assigned to dose groups based on body weight. […] Mice were divided into two cohorts for Nano-romidepsin (NanoRomi) and free romidepsin. Each cohort was divided into sub-cohorts. Each sub cohort (n=5) received a single treatment of following doses: 1, 2, 3, 5, and 8 mg/kg body weight by intreaperitoneal (IP) and intravenous (IV) route of administration. NanoRomi was diluted under sterile conditions in phosphate buffered saline (PBS). Romidepsin was prepared in DMSO and then diluted with PBS under sterile condition. […] The mice were monitored for 7 days after the last treatment. For single dose and repeated dose toxicity study, we used two endpoints: weight loss and clinical score. Clinical signs were scored by observing activity, appearance (hair coat and eyes/nose), posture, and body condition with a maximum of 3 points going to each (0, normal; 1 slight deviation from normal; 2, moderate deviation from normal, 3, severe deviation from normal). Euthanasia criteria included weight loss either >20% weight loss or reached a clinical score >6.

[5] = tested on: human CLL, PLL, T cell lymphoma, esophageal and pancreatic cancer and multiple myeloma cells; settings: in vitro; cited from earlier work

**Q.** Which results are given for C/C=C1\NC(=O)[C@H]2CSSCC/C=C/[C@H](CC(=O)N[C@H](C(C)C)C(=O)N2)OC(=O)[C@H](C(C)C)NC1=O [Romidepsin, (1S,4S,7Z,10S,16E,21R)-7-Ethylidene-4,21-diisopropyl-2-oxa-12,13-dithia-5,8,20,23-tetrazabicyclo[8.7.6]tricos-16-ene-3,6,9,19,22-pentone]?
**A.** IC50 ([1]; Homo sapiens, 60 h, read-out: Avg. IC50 across the cancer cell lines, 60 hours, 8 cancer cell lines, b235 with +/- spread): 1.23 nM; IC50 ([1]; Homo sapiens, 60 h, read-out: IC50 range across the cancer cell lines, 60 hours, 8 cancer cell lines): 0.6 to 1.9 nM; IC50 ([1]; read-out: Avg. IC50 across the cancer cell lines, 60 hours, 8 cancer cell lines, b235 with +/- spread): 1.23 nM; times PBMCs from healthy donors more sensitive than the cancer cells ([2]; 72 hrs PBMCs vs cancer cells): 1.5 ×; IC50 ([2]; 24 h, read-out: IC50 in nM, PBMC Donor 1, 24 hrs): 0.02 nM; IC50 ([2]; 24 h, read-out: IC50 in nM, PBMC Donor 2, 24 hrs): > 50 nM; IC50 ([2]; 24 h, read-out: IC50 in nM, PBMC Donor 3, 24 hrs): > 50 nM; IC50 ([2]; 48 h, read-out: IC50 in nM, PBMC Donor 1, 48 hrs): 0.01 nM; IC50 ([2]; 48 h, read-out: IC50 in nM, PBMC Donor 2, 48 hrs): 0.01 nM; IC50 ([2]; 48 h, read-out: IC50 in nM, PBMC Donor 3, 48 hrs): > 50 nM; IC50 ([2]; 72 h, read-out: IC50 in nM, PBMC Donor 1, 72 hrs): 0.04 nM; IC50 ([2]; 72 h, read-out: IC50 in nM, PBMC Donor 2, 72 hrs): 0.07 nM; IC50 ([2]; 72 h, read-out: IC50 in nM, PBMC Donor 3, 72 hrs): 2.48 nM; IC50 ([2]; read-out: Avg. IC50 across the PBMCs from healthy donors, 3 donors, 72 hrs (sentence prints 'At 60 hrs' for NanoRomidepsin PDLLA)): 0.8 nM; IC50 ([2]; read-out: IC50 range across the PBMCs from healthy donors, 3 donors, 72 hrs (sentence prints 'At 60 hrs' for NanoRomidepsin PDLLA)): 0.04 to 2.5 nM; acetylation of H3 and H4 (flow cytometry) [3]: concentration dependent increase in the acetylation of both H3 and H4; AUC(0-inf) ([4]; ip): 1930 ng·h/mL; AUC(0-t) ([4]; ip): 1920 ng·h/mL; Cmax ([4]; ip): 120 ng/mL; MRT inf ([4]; ip): 12.8 h; Tmax ([4]; ip): 6 h; Vd/F ([4]; ip): 20 L/kg; half-life ([4]; ip): 9.83 h; AUC(0-inf) ([4]; iv): 108 ng·h/mL; AUC(0-t) ([4]; iv): 99.3 ng·h/mL; Cmax ([4]; iv): 21.3 ng/mL; MRT inf ([4]; iv): 5.53 h; Tmax ([4]; iv): 1 h; half-life ([4]; iv): 5.22 h; body weight change (BALB/c mice; 3 mg/kg IP on days 1, 4, 8 and 11): severe body weight loss; deaths during the experimental period (BALB/c mice; 2 and 3 mg/kg IP on days 1, 4, 8 and 11): 1 mouse; concentrations at which anti-proliferative and pro-apoptotic activity was seen [5]: 1 to 500 nM
